Laboratory results published in paper PMC9118553, “In Vivo Bioconcentration of 10 Anionic Surfactants in Rainbow Trout Explained by In Vitro Data on Partitioning and S9 Clearance” (Environmental Science & Technology, 2022).
Like-named read-outs stand apart in the source and are kept apart here.

Assay: RT-S9 substrate depletion assay, individual compounds, with IVIVE
Conditions: for CLint,S9 / CLint,in vivo set to LOD/3 for extrapolation: s9
Description: The in vitro intrinsic clearance by the S9 fraction of rainbow trout liver was measured for the same 11 anionic surfactants used in the BCF experiment as separate compounds. […] An established RT-S9 substrate depletion assay was employed,[25]−[27] predating the currently available OECD guideline 319B.[28] A single batch of the characterized liver homogenate material was prepared at the US EPA lab in Duluth and shipped on dry ice to the testing facilities at the University of Amsterdam. The test was conducted using the same method applied for a series of cationic surfactants in Droge et al.[29] and is summarized together with the in vitro–in vivo extrapolation in Text S4.
Text S4: Trout liver S9 parent depletion assay details and IVIVE
Liver tissue was separately pooled from the same five rainbow trout (three males/two females, ~300 g, liver weight ~3 g) used also for the RT-S9 study on a series of cationic surfactants (Droge et al., 2021b). The liver sample was homogenized in an appropriate buffer and then centrifuged to yield a 13,000 x g supernatant (the ‘S9 fraction’, lacking only mitochondrial fractions). No further refinement towards microsomal fractions was made to remove cytosolic and lysosomal components.
Upon arrival at the University of Amsterdam the liver
S9 material was stored in a -80 °C freezer until use.
Individual chemicals were first dissolved in methanol and then further diluted to 20% methanol in 100 mM phosphate buffer to make a ~20 µM stock solution, which was then spiked as 10 µL in 190 µL of active S9 mixture. The active S9 mixture consisted of 100 mM potassium phosphate-buffered saline (PPBS) adjusted to pH 7.8, 2 mM β-NADPH, 2 mM UDPGA, 0.1 mM PAPS, 5 mM GSH, 10 μg/mL alamethicin (in methanol carrier; 0.1% v/v final concentration), and 2 mg/mL S9 protein. The substrate depletion assays were performed using the multiple vial method described in OECD TG 319B, employing two or three separately spiked series.
Reactions were performed at 11 °C in a temperature-controlled water bath (B. Braun Frigomix-R) that was placed on a 2 cm travel path shaker (Gerhardt LS 10) set at 45 rpm. As a positive […]
alkylsulfonates, no additional assays with inactivated RT-S9 were performed.
Reactions were quenched with 600 µL ice-cold acetonitrile. After 10 s vortexing and 5 min centrifugation (Hermle Z300, 2500 rpm), 100 µL clear supernatant was transferred into 300 µL glass inserts placed in new autosampler vials, and mixed with 100 µL pure water. Concentrations were measured using a Prominence UFLC-XR system (Shimadzu) coupled to a tandem mass spectrometer (QTRAP 4000, Applied Biosystems) with a Turbo Ion spray source operated at 400 ◦C. For chromatographic separations, a 100 x 2.1mm x 2.7 µm Supelco Ascentis Express column was used (40 °C), with eluent A: pure water with 2 mM ammonium acetate, and eluent […]
prepared in 50% acetonitrile/water, calibration curves used covered at least four points in a log-linear range. The lowest external standard to fit the log-linear calibration curve served as limit of quantification, requiring a peak of at least 10x the average noise.
Each vial was treated as an independent vial with recorded exposure time. Log-transformed concentration data of the parent compound were plotted against exposure time (min) and analysed using Graphpad PRISM 8. […]
the slope (min-1) was multiplied by -2.3 and by 60 (min h-1) to obtain a first order depletion rate […]
Extrapolation of kdep to whole body rate biotransformation rate constant (kB-S9) The basic approach to extrapolate first order depletion rate constants (k dep) to whole body

[1] = both, rainbow trout, 1 µM, pH 7.8

Structure (SMILES): CCCCCCCCCCCCCCCCS(=O)(=O)O [C16SO3, hexadecylsulfonate]
- kB-S9, biotransformation rate constant from in vitro RT-S9 assay: 0.002 ^h h^–1
- reaction rate set to LOD/3 for extrapolation: 0.05 h⁻¹
- CLint,S9: n.s.
- CLint,in vivo set to LOD/3 for extrapolation: ~ 3.5 mL h-1 g liver-1

Structure (SMILES): CCCCCCCCCCCCCS(=O)(=O)O [C13SO3, tridecylsulfonate]
- kB-S9, biotransformation rate constant from in vitro RT-S9 assay: 0.032 (0.028–0.036) h^–1
- CLint,S9: 0.45 mL h-1 mg protein-1

Structure (SMILES): CCCCCCCCCCCCCOS(=O)(=O)O [C13SO4, tridecylsulfate]
- kB-S9, biotransformation rate constant from in vitro RT-S9 assay: 0.028 (0.022–0.034) h^–1
- CLint,S9: 0.40 mL h-1 mg protein-1

Structure (SMILES): CCCCC(CC)COC(=O)CC(C(=O)OCC(CC)CCCC)S(=O)(=O)O (stereo not drawn) [DOSS, bis(2-ethylhexyl)sulfosuccinate]
- factor by which kB-S9 was less than kB-BCF [1]: 6
- kB-S9, biotransformation rate constant from in vitro RT-S9 assay [1]: 0.011 (0.009–0.013) h^–1
- CLint,S9: 0.14 mL h-1 mg protein-1
- Slope of depletion curve (log concentration vs time) (tested individually, 2 mg/mL S9 protein, 11 °C): -0.0021 min-1

Structure (SMILES): CCCCCCCCCCCS(=O)(=O)O [C11SO3, undecylsulfonate]
- kB-S9, biotransformation rate constant from in vitro RT-S9 assay: 0.225 (0.21–0.24) h^–1
- CLint,S9: 3.05 mL h-1 mg protein-1

Structure (SMILES): CCCCCCCCCCCCOCCOCCOCCOCCOS(=O)(=O)O [C12-EO4-SO4, dodecyltetraethoxysulfate]
- kB-S9, biotransformation rate constant from in vitro RT-S9 assay: 0.084 (0.059–0.109) h^–1
- CLint,S9: 1.30 mL h-1 mg protein-1

Structure (SMILES): CCCCCCCCCCc1ccc(S(=O)(=O)O)cc1 [C10-1-LAS, 1-n-(p-sulfophenyl)decane]
- kB-S9, biotransformation rate constant from in vitro RT-S9 assay: 0.041 (0.037–0.045) h^–1
- CLint,S9: 0.61 mL h-1 mg protein-1

Structure (SMILES): CCCCCCCCCCCOS(=O)(=O)O [C11SO4, undecylsulfate]
- kB-S9, biotransformation rate constant from in vitro RT-S9 assay: 0.151 (0.136–0.166) h^–1
- CLint,S9: 2.81 mL h-1 mg protein-1

Structure (SMILES): CCCCCCCCCCS(=O)(=O)O [C10SO3, decylsulfonate]
- kB-S9, biotransformation rate constant from in vitro RT-S9 assay: 0.366 (0.33–0.40) h^–1
- CLint,S9: 4.54 mL h-1 mg protein-1

Structure (SMILES): CCCCCCCCCCCCCCS(=O)(=O)O [C14SO3, tetradecylsulfonate]
- factor by which kB-S9 was less than kB-BCF: 11
- kB-S9, biotransformation rate constant from in vitro RT-S9 assay: 0.002 ^h h^–1
- reaction rate set to LOD/3 for extrapolation: 0.05 h⁻¹
- CLint,S9: n.s.
- CLint,in vivo set to LOD/3 for extrapolation: ~ 3.5 mL h-1 g liver-1
